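A five-concentration, 48-hour dose response in 96-well plates underlies each endpoint, interpolated linearly between surrounding concentrations. At the GI50, growth is halved.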 Activity calls are given as the source filed them. Cut-off read from the data, not from the text of the source: active = GI50 up to about 1.1 µM and inactive = higher.
Assays:
Assay in all cases: DTP human tumour cell line panel, 48 h
[1] = test system: A498
[2] = test system: A549
[3] = test system: CAKI-1
[4] = test system: CCRF-CEM
[5] = test system: DLD-1
[6] = test system: HOP-92
[7] = test system: KM-20L2
[8] = test system: LOX IMVI
[9] = test system: M14
[10] = test system: Malme-3M
[11] = test system: NCI-H226
[12] = test system: NCI-H460
[13] = test system: NCI-H522
[14] = test system: OVCAR-8
[15] = test system: SK-MEL-2
[16] = test system: XF498
[17] = test system: Hs-578T
[18] = test system: MDA-N
[19] = test system: NCI/ADR-RES
[20] = test system: PC-3

Compound | GI50 [1] | GI50 [2] | GI50 [3] | GI50 [4] | GI50 [5] | GI50 [6] | GI50 [7] | GI50 [8] | GI50 [9] | GI50 [10] | GI50 [11] | GI50 [12] | GI50 [13] | GI50 [14] | GI50 [15] | GI50 [16] | GI50 [17] | GI50 [18] | GI50 [19] | GI50 [20]
O=C1C(Cl)=C(Cl)C(=O)N1c1cccc(C(F)(F)F)c1 | > 100 µM (inactive) | > 100 µM (inactive) | > 61.9 µM (inactive) | > 51.9 µM (inactive) | > 93.3 µM (inactive) | > 100 µM (inactive) | > 100 µM (inactive) | > 100 µM (inactive) | > 100 µM (inactive) | > 100 µM (inactive) | > 100 µM (inactive) | > 100 µM (inactive) | 12.1 µM (inactive) | > 100 µM (inactive) | > 100 µM (inactive) | 3.77 µM (inactive) |  |  |  | 
CC(=O)N1CC2Nc3ccccc3C2CC1CO (centres undefined) | > 100 µM (inactive) | > 100 µM (inactive) | > 100 µM (inactive) | > 100 µM (inactive) | > 100 µM (inactive) | > 100 µM (inactive) | > 100 µM (inactive) | > 100 µM (inactive) | > 100 µM (inactive) | > 100 µM (inactive) | > 100 µM (inactive) | > 100 µM (inactive) | > 100 µM (inactive) | > 100 µM (inactive) | > 100 µM (inactive) | > 100 µM (inactive) |  |  |  | 
NC(=O)c1cn(Cc2ccccc2)c(=O)n1Cc1ccccc1 | > 100 µM (inactive) | > 100 µM (inactive) | > 100 µM (inactive) | > 100 µM (inactive) | > 100 µM (inactive) | > 100 µM (inactive) | > 100 µM (inactive) | > 100 µM (inactive) | > 100 µM (inactive) |  | > 100 µM (inactive) | > 100 µM (inactive) | > 100 µM (inactive) | > 100 µM (inactive) | > 100 µM (inactive) | > 100 µM (inactive) |  |  |  | 
[N-]=[N+]=C1C(=O)C2CC3CC(C2)CC1C3 | > 100 µM (inactive) | > 100 µM (inactive) | > 100 µM (inactive) | > 100 µM (inactive) | > 100 µM (inactive) | > 100 µM (inactive) | > 100 µM (inactive) | > 100 µM (inactive) | > 100 µM (inactive) | > 100 µM (inactive) | > 100 µM (inactive) | > 100 µM (inactive) | > 100 µM (inactive) | > 100 µM (inactive) | > 100 µM (inactive) | > 100 µM (inactive) |  |  |  | 
Cc1c(C(=O)/C=C/c2ccc3c(c2)OCO3)[n+]([O-])c2ccccc2[n+]1[O-] | 20.4 µM (inactive) | 32.7 µM (inactive) | 25.9 µM (inactive) | 32.9 µM (inactive) | 38.6 µM (inactive) | 21.1 µM (inactive) | 22.3 µM (inactive) | 26.1 µM (inactive) | 28.1 µM (inactive) | 89.5 µM (inactive) | 16 µM (inactive) | 28.4 µM (inactive) | 15.3 µM (inactive) | 23.8 µM (inactive) |  | 25.8 µM (inactive) |  |  |  | 
COc1ccc(CC(C#N)c2cc(OC)c(OC)c(OC)c2)cc1 (centres undefined) | 0.179 µM (active) | 0.0525 µM (active) | 0.0455 µM (active) | 0.0668 µM (active) | 0.11 µM (active) | 0.366 µM (active) | 0.0541 µM (active) | 0.0328 µM (active) | 0.0472 µM (active) | 0.0361 µM (active) | 0.773 µM (active) | 0.0409 µM (active) | 0.0267 µM (active) | 0.135 µM (active) | 0.0775 µM (active) | 0.356 µM (active) | 0.0286 µM (active) | < 0.01 µM (active) | 0.0185 µM (active) | 0.014 µM (active)
Cc1cccc(N(CC(=O)O)S(=O)(=O)c2ccccc2)c1 | > 100 µM (inactive) | > 100 µM (inactive) | > 100 µM (inactive) | > 100 µM (inactive) | > 100 µM (inactive) | > 100 µM (inactive) | > 100 µM (inactive) | > 100 µM (inactive) | > 100 µM (inactive) | > 100 µM (inactive) | > 100 µM (inactive) | > 100 µM (inactive) | > 100 µM (inactive) | > 100 µM (inactive) | > 100 µM (inactive) | > 100 µM (inactive) |  |  |  | 

From ChEMBL document CHEMBL1201862, “PubChem BioAssay data set” (2004)
